Assay results from ChEMBL document CHEMBL5257106, “Design, synthesis, and biological evaluation of novel HDAC inhibitors with a 3-(benzazol-2-yl)quinoxaline framework” (Bioorg Med Chem Lett, 2023).
Activity calls are given as the source filed them. No cut-off for these calls is given here.

Experiments:
[1] = test system: HCT-116; assay: Induction of cell cycle arrest in human HCT-116 assessed as decrease in G0/G1 phase cells at 1 uM incubated for 48 hrs by flow cytometric analysis (reference value: 63.51%); type: functional; design: scale not given: the % may be the effect or the level left
[2] = test system: K562; assay: Antiproliferative activity against human K562 cells assessed as inhibition of cell growth by MTT assay; type: functional, cell-based
[3] = test system: HCT-116; assay: Induction of cell cycle arrest in human HCT-116 assessed as increase in G2/M phase cells at 0.5 uM incubated for 48 hrs by flow cytometric analysis (reference value: 23.70%); type: functional
[4] = test system: HCT-116; assay: Induction of apoptosis in human HCT-116 cells assessed as viable cells at 1 uM incubated for 24 hrs by Annexin V-FITC/PI staining based flow cytometry analysis (reference value: 93.2%); type: functional; conditions: Homo sapiens, HCT-116, read-out: Activity
[5] = test system: PANC-1; assay: Antiproliferative activity against human PANC-1 cells assessed as inhibition of cell growth by MTT assay; type: functional, cell-based
[6] = test system: HCT-116; assay: Potency index, ratio of SAHA IC50 to test compound IC50 for antiproliferative activity against human HCT-116 cells assessed as inhibition of cell growth by MTT assay; type: functional
[7] = test system: RS4-11; assay: Antiproliferative activity against human RS4-11 cells assessed as inhibition of cell growth by MTT assay; type: functional, cell-based
[8] = target: Histone deacetylase (Homo sapiens) (UniProt Q13547+O15379+Q9UBN7+Q92769+Q9UQL6+Q8WUI4+Q9BY41+Q96DB2+P56524+Q9UKV0+Q969S8); assay: Inhibition of HDAC in human HCT-116 cells assessed as increase in alpha tubulin acetylation incubated for 24 hrs by Western blot analysis; type: cell-based; conditions: dose 0.5-1 µM
[9] = test system: MCF7; assay: Antiproliferative activity against human MCF7 cells assessed as inhibition of cell growth by MTT assay; type: functional, cell-based
[10] = test system: HCT-116; assay: Induction of apoptosis in human HCT-116 cells assessed as early apoptotic cells at 0.5 uM incubated for 24 hrs by Annexin V-FITC/PI staining based flow cytometry analysis (reference value: 6.50%); type: functional
[11] = test system: HCT-116; assay: Induction of apoptosis in human HCT-116 cells assessed as total apoptotic cells at 0.5 uM incubated for 24 hrs by Annexin V-FITC/PI staining based flow cytometry analysis (reference value: 6.823%); type: functional
[12] = target: T1, DNA topoisomerase 1 (Homo sapiens) (UniProt P11387); assay: Inhibition of topoisomerase 1 in human HCT-116 cells assessed as suppression of Topo 1 protein expression incubated for 24 hrs by Western blot analysis; type: cell-based; conditions: dose 0.5-1 µM
T1 sequence (whole entry): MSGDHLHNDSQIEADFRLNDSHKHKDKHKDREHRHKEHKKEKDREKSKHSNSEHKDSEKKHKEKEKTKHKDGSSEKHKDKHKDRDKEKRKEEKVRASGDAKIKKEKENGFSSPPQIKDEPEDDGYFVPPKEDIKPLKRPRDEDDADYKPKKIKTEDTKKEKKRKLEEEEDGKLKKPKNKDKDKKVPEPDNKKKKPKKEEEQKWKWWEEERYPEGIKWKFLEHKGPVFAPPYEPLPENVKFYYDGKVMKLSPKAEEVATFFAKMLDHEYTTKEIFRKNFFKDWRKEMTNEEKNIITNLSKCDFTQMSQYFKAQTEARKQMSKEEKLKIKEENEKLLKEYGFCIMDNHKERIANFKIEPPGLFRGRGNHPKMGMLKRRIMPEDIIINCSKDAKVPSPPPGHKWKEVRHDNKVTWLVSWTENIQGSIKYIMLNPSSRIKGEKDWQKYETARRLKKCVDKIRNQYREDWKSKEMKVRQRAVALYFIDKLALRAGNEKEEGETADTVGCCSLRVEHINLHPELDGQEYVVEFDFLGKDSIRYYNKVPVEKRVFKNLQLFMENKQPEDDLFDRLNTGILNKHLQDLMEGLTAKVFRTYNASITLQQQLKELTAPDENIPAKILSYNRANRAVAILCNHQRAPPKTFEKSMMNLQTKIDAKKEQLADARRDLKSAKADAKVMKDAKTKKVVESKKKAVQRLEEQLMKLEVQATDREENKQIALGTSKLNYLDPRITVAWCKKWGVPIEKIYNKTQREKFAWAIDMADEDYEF

[13] = test system: HCT-116; assay: Induction of apoptosis in human HCT-116 cells assessed as activation of caspase pathway incubated for 24 hrs by Western blot analysis; type: functional, cell-based; conditions: dose 0.5-1 µM
[14] = test system: HCT-116; assay: Induction of apoptosis in human HCT-116 cells assessed as necrotic cells at 1 uM incubated for 24 hrs by Annexin V-FITC/PI staining based flow cytometry analysis (reference value: 0.00%); type: functional
[15] = test system: HCT-116; assay: Induction of apoptosis in human HCT-116 cells assessed as late apoptotic cells at 1 uM incubated for 24 hrs by Annexin V-FITC/PI staining based flow cytometry analysis (reference value: 0.323%); type: functional
[16] = test system: HCT-116; assay: Induction of apoptosis in human HCT-116 cells assessed as upregulation of cleaved PARP expression at 0.5 to 1 uM incubated for 24 hrs by Western blot analysis; type: functional, cell-based; conditions: dose 0.5-1 µM
[17] = test system: HCT-116; assay: Antiproliferative activity against human HCT-116 cells assessed as inhibition of cell growth by MTT assay; type: functional, cell-based
[18] = test system: HCT-116; assay: Induction of apoptosis in human HCT-116 cells assessed as total apoptotic cells at 1 uM incubated for 24 hrs by Annexin V-FITC/PI staining based flow cytometry analysis (reference value: 6.823%); type: functional
[19] = test system: RS4-11; assay: Potency index, ratio of SAHA IC50 to test compound IC50 for antiproliferative activity against human RS4-11 cells assessed as inhibition of cell growth by MTT assay; type: functional
[20] = target: Histone deacetylase 3 (Homo sapiens, UniProt O15379); assay: Inhibition of HDAC3 (unknown origin)
[21] = test system: HCT-116; assay: Induction of cell cycle arrest in human HCT-116 assessed as S phase cells at 1 uM incubated for 48 hrs by flow cytometric analysis (reference value: 12.79%); type: functional
[22] = test system: HCT-116; assay: Induction of apoptosis in human HCT-116 cells assessed as early apoptotic cells at 1 uM incubated for 24 hrs by Annexin V-FITC/PI staining based flow cytometry analysis (reference value: 6.50%); type: functional
[23] = target: Histone deacetylase 4 (Homo sapiens, UniProt P56524); assay: Inhibition of HDAC4 (unknown origin)
[24] = target: T1, DNA topoisomerase 1 (Homo sapiens); assay: Inhibition of topoisomerase 1 (unknown origin) mediated DNA relaxation assessed as delay in pBR322 DNA migration by gel electrophoresis assay
[25] = test system: HCT-116; assay: Induction of cell cycle arrest in human HCT-116 assessed as S phase cells at 0.5 uM incubated for 48 hrs by flow cytometric analysis (reference value: 12.79%); type: functional
[26] = target: T1, DNA topoisomerase 1 (Homo sapiens); assay: Inhibition of topoisomerase 1 (unknown origin) assessed as effect on DNA by gel electrophoresis
[27] = test system: A2780; assay: Antiproliferative activity against human A2780 cells assessed as inhibition of cell growth by MTT assay; type: functional, cell-based
[28] = test system: HL-60; assay: Antiproliferative activity against human HL-60 cells assessed as inhibition of cell growth by MTT assay; type: functional, cell-based
[29] = target: Histone deacetylase 2 (Homo sapiens, UniProt Q92769); assay: Inhibition of HDAC2 (unknown origin)
Sequence of Histone deacetylase 2 (Q92769 whole entry): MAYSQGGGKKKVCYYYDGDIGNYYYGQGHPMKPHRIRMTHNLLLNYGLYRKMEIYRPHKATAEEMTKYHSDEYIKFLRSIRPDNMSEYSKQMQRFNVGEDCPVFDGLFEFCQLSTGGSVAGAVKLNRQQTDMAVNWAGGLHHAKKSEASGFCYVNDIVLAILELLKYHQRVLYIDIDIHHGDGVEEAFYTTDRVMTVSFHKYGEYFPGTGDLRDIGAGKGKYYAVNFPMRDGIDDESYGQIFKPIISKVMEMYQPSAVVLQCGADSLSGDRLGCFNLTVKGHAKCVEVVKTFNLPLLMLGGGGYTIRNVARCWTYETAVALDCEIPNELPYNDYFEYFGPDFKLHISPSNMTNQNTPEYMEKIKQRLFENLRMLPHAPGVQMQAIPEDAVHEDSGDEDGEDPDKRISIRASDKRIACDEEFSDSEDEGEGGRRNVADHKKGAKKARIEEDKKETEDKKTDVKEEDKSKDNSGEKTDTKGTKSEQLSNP

Sequence of Histone deacetylase 3 (O15379 whole entry): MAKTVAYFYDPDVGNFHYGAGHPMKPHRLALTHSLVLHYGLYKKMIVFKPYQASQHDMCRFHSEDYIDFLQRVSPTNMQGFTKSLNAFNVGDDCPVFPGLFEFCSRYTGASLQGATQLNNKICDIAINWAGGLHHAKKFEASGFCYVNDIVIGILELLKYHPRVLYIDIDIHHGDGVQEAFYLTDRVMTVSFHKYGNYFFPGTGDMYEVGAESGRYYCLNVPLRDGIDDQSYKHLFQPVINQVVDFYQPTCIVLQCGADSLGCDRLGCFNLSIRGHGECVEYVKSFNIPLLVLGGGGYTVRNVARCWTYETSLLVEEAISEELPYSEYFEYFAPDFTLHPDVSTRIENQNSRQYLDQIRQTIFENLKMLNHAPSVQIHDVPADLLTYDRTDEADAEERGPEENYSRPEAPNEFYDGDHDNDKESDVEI
Sequence of Histone deacetylase 4 (P56524 whole entry): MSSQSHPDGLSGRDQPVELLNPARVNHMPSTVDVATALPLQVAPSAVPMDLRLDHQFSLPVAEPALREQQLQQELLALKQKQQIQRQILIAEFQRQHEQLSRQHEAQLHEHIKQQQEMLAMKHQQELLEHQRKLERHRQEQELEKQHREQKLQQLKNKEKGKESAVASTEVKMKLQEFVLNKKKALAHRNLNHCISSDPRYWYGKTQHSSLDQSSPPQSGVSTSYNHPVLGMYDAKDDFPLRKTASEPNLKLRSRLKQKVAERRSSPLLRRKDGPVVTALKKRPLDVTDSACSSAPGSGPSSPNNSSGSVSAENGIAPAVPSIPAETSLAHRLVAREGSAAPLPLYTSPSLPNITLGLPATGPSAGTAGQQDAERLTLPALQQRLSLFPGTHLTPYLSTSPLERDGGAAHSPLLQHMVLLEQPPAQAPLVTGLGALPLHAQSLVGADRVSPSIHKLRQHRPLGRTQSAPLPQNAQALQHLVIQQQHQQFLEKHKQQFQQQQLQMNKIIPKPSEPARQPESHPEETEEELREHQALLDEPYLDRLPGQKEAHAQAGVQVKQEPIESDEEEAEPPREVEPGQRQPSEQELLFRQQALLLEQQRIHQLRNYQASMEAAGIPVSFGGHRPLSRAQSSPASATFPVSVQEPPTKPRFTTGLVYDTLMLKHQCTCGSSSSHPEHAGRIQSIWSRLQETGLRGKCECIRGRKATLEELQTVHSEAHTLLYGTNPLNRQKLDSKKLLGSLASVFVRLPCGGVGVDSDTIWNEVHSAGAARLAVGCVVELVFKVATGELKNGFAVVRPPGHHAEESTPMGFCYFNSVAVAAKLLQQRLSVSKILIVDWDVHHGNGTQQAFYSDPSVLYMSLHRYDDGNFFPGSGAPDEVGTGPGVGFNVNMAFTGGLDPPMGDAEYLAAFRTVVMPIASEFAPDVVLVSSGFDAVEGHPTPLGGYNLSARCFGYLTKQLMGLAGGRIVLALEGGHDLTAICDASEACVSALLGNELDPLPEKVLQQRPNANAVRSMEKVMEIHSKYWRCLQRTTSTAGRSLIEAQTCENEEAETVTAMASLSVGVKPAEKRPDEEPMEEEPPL

O=C(CCCCCCNc1nc2ccccc2nc1-c1nc2ccccc2o1)NO
Activity [1]: 46.57% | IC50 [2]: 890 nM | Activity [3]: 36.67% | viability at 1 µM [4]: 48.1% | IC50 [5]: 1030 nM | Ratio IC50 [6]: 6 | IC50 [7]: 890 nM | inhibition [8]: Dose-Dependent Effect | IC50 [9]: 1270 nM | Activity [10]: 28.1% | Activity [11]: 35.31% | inhibition [12]: Dose-Dependent Effect | Activity [13]: Dose-Dependent Effect | Activity [14]: 0.103% | Activity [15]: 17.3% | Activity [16]: Active | IC50 [17]: 910 nM | Activity [18]: 51.8% | Ratio IC50 [19]: 2 | IC50 [20]: 15.5 nM | Activity [21]: 13.79% | Activity [22]: 34.5% | IC50 [23]: 15.5 nM | inhibition [24]: Active | Activity [25]: 11.65% | inhibition [26]: inactive | IC50 [27]: 1760 nM | IC50 [28]: 890 nM | IC50 [29]: 34.4 nM
